Test results published in patent publication US12252488B2 (Nimbus Saturn, Inc., priority 2021, dated 2025).

Biological target: T1, HPK1 (Homo sapiens, UniProt Q92918)
T1 construct: purchased Invitrogen
Assay: HPK1 biochemical enzyme assay (microfluidic mobility shift assay)
Settings: 1000 uM (1 mM) ATP; Caliper mobility shift; 1.5 nM HPK1; 30 min preincubation; read-out: HPK1 1000UMATP caliper IC50
Protocol: Example 33. HPK1 Biochemical Enzyme Assay
HPK1 biochemical enzyme assay: HPK1 enzyme inhibition was measured using a microfluidic mobility shift assay. Reactions were performed in a 384-well plate, containing 1.5 nM HPK1 (Invitrogen), in assay buffer (Carna Biosciences; pH 7.4). Test compounds were titrated in ten point curves (top final assay concentration 3 μM), and preincubated with enzyme/substrate mix for 30 min prior to initiation of the reaction by addition of ATP (1 mM final concentration) and substrate (1 μM final concentration; Carna Biosciences) diluted in assay buffer supplemented by MgCl2 (final assay concentration of 5 mM). Following 60 min incubation at RT, the reaction was terminated by addition of 60 μl/well termination buffer (Carna Biosciences) and signal determination using a Caliper EZ Reader (Perkin Elmer, UK).
The compound numbers correspond to the compound numbers in Table 1. Compounds having an activity designated as “A” provided an IC50≤100 nM; compounds having an activity designated as “B” provided an IC50>100 nM and ≤1,000 nM; compounds having an activity designated as “C” provided an IC50>1,000 nM.

T1 sequence (Q92918 whole entry): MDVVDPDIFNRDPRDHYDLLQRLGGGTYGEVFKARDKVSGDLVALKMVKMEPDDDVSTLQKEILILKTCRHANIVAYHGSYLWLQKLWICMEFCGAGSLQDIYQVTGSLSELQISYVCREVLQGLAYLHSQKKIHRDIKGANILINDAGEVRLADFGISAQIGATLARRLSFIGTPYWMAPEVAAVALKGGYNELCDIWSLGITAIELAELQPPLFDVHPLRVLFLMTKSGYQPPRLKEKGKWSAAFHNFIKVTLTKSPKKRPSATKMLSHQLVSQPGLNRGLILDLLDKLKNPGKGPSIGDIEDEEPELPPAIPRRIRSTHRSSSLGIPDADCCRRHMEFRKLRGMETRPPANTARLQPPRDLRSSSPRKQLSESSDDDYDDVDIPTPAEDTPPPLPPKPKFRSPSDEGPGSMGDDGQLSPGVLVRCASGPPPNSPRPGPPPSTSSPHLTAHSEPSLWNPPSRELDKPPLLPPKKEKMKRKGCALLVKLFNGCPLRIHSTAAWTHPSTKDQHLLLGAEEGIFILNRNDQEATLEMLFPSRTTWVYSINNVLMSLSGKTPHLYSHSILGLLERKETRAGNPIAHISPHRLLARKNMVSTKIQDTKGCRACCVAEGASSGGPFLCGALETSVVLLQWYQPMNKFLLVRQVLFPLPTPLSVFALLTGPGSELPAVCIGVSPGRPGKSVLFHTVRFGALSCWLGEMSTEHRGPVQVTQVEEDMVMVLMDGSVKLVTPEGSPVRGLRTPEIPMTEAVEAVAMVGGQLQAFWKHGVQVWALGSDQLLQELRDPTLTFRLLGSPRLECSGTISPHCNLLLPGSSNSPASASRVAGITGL

Row | SMILES | IC50
1 | CCC(CC)c1cc(Nc2ccc(N3CCC(O)CC3)cn2)c2c(=O)[nH]ccc2n1 [I-32, 2-(1-ethylpropyl)-4-[[5-(4-hydroxy-1-piperidyl)-2-pyridyl]amino]-6H-1,6-naphthyridin-5-one] | 100 to 1000 nM
2 | N#Cc1c[nH]c(=O)c2c(Nc3ccc(N4CCC(O)CC4)cn3)cc(-c3c(F)cccc3F)nc12 [I-33, 2-(2,6-difluorophenyl)-4-[[5-(4-hydroxy-1-piperidyl)-2-pyridyl]amino]-5-oxo-6H-1,6-naphthyridine-8-carbonitrile] | 100 to 1000 nM
3 | O=c1[nH]ccc2nc(C3CCNCC3)cc(Nc3ccc(N4CCC(O)CC4)cn3)c12 [I-34, 4-[[5-(4-hydroxy-1-piperidyl)-2-pyridyl]amino]-2-(4-piperidyl)-6H-1,6-naphthyridin-5-one] | 100 to 1000 nM
4 | O=c1[nH]ccc2nc(C3CC4CCC3C4)cc(Nc3ccc(N4CCC(O)CC4)cn3)c12 (stereo not drawn) [I-35, 4-[[5-(4-hydroxy-1-piperidyl)-2-pyridyl]amino]-2-norbornan-2-yl-6H-1,6-naphthyridin-5-one] | 100 to 1000 nM
5 | O=c1[nH]ccc2nc(C3CCOCC3)cc(Nc3ccc(N4CCC(O)CC4)cn3)c12 [I-36, 4-[[5-(4-hydroxy-1-piperidyl)-2-pyridyl]amino]-2-tetrahydropyran-4-yl-6H-1,6-naphthyridin-5-one] | ≤ 100 nM
6 | CC(O)c1cc(Nc2ccc(N3CCC(O)CC3)cn2)c2c(=O)[nH]ccc2n1 (stereo not drawn) [I-37, 2-(1-hydroxyethyl)-4-[[5-(4-hydroxy-1-piperidyl)-2-pyridyl]amino]-6H-1,6-naphthyridin-5-one] | 100 to 1000 nM
7 | CC(C)(O)c1cc(Nc2ccc(N3CCC(O)CC3)cn2)c2c(=O)[nH]ccc2n1 [I-38, 2-(1-hydroxy-1-methyl-ethyl)-4-[[5-(4-hydroxy-1-piperidyl)-2-pyridyl]amino]-6H-1,6-naphthyridin-5-one] | ≤ 100 nM
8 | O=C(O)c1c[nH]c(=O)c2c(Nc3ccc(N4CCC(O)CC4)cn3)cc(-c3c(F)cccc3F)nc12 [I-39, 2-(2,6-difluorophenyl)-4-[[5-(4-hydroxy-1-piperidyl)-2-pyridyl]amino]-5-oxo-6H-1,6-naphthyridine-8-carboxylic Acid] | > 1000 nM
9 | O=c1[nH]ccc2nc(C3CC4CCC3C4)cc(Nc3ccc(N4CCC(O)CC4)cn3)c12 (stereo not drawn) [I-40, 4-[[5-(4-hydroxy-1-piperidyl)-2-pyridyl]amino]-2-norbornan-2-yl-6H-1,6-naphthyridin-5-one] | 100 to 1000 nM
10 | COc1ccc(F)c(-c2cc(Nc3ccc(N4CCC(O)CC4)cn3)c3c(=O)[nH]ccc3n2)c1 [I-42, 2-(2-fluoro-5-methoxyphenyl)-4-((5-(4-hydroxypiperidin-1-yl)pyridin-2-yl)amino)-1,6-naphthyridin-5(6H)-one] | 100 to 1000 nM
11 | O=c1[nH]ccc2nc(-c3cc(C4CC4)ccc3F)cc(Nc3ccc(N4CCC(O)CC4)cn3)c12 [I-43, 2-(5-cyclopropyl-2-fluoro-phenyl)-4-[[5-(4-hydroxy-1-piperidyl)-2-pyridyl]amino]-6H-1,6-naphthyridin-5-one] | ≤ 100 nM
12 | O=c1[nH]ccc2nccc(Nc3ccc(N4CCC(O)CC4)cn3)c12 [I-44, 4-[[5-(4-hydroxy-1-piperidyl)-2-pyridyl]amino]-6H-1,6-naphthyridin-5-one] | ≤ 100 nM
13 | N#Cc1ccc(F)c(-c2cc(Nc3ccc(N4CCC(O)CC4)cn3)c3c(=O)[nH]ccc3n2)c1 [I-45, 4-fluoro-3-[4-[[5-(4-hydroxy-1-piperidyl)-2-pyridyl]amino]-5-oxo-6H-1,6-naphthyridin-2-yl] benzonitrile] | ≤ 100 nM
14 | CCNC(=O)C(C)(C)c1ccc(Nc2cc(-c3c(F)cccc3F)nc3cc[nH]c(=O)c23)nc1 [I-46, 2-[6-[[2-(2,6-difluoro-phenyl)-5-oxo-6H-1,6-naphthyridin-4-yl]amino]-3-pyridyl]-N-ethyl-2-methyl-propanamide] | 100 to 1000 nM
15 | CC(=O)c1cc(Nc2ccc(N3CCC(O)CC3)cn2)c2c(=O)[nH]ccc2n1 [I-47, 2-acetyl-4-[[5-(4-hydroxy-1-piperidyl)-2-pyridyl]amino]-6H-1,6-naphthyridin-5-one] | ≤ 100 nM
16 | CC(C)c1ccc(F)c(-c2cc(Nc3ccc(N4CCC(O)CC4)cn3)c3c(=O)[nH]ccc3n2)c1 [I-48, 2-(2-fluoro-5-isopropyl-phenyl)-4-[[5-(4-hydroxy-1-piperidyl)-2-pyridyl]amino]-6H-1,6-naphthyridin-5-one] | 100 to 1000 nM
17 | CCc1c[nH]c(=O)c2c(Nc3ccc(N4CCC(O)CC4)cn3)cc(-c3c(F)cccc3F)nc12 [I-49, 2-(2,6-difluorophenyl)-8-ethyl-4-((5-(4-hydroxypiperidin-1-yl)pyridin-2-yl)amino)-1,6-naphthyridin-5(6H)-one] | 100 to 1000 nM
18 | O=c1[nH]ccc2nc(N3CCCC(O)C3)cc(Nc3ccc(N4CCC(O)CC4)cn3)c12 (stereo not drawn) [I-50, 2-(3-hydroxy-1-piperidyl)-4-[[5-(4-hydroxy-1-piperidyl)-2-pyridyl]amino]-6H-1,6-naphthyridin-5-one] | 100 to 1000 nM
19 | NC(=O)c1ccc(F)c(-c2cc(Nc3ccc(N4CCC(O)CC4)cn3)c3c(=O)[nH]ccc3n2)c1 [I-51, 4-fluoro-3-[4-[[5-(4-hydroxy-1-piperidyl)-2-pyridyl]amino]-5-oxo-6H-1,6-naphthyridin-2-yl]benzamide] | 100 to 1000 nM
20 | CCN(C)C(=O)C(C)(C)c1ccc(Nc2cc(-c3c(F)cccc3F)nc3cc[nH]c(=O)c23)nc1 [I-52, 2-[6-[[2-(2,6-difluoro-phenyl)-5-oxo-6H-1,6-naphthyridin-4-yl]amino]-3-pyridyl]-N-ethyl-N,2-dimethyl-propanamide] | 100 to 1000 nM
21 | CCOC(=O)C(C)(C)c1ccc(Nc2cc(-c3c(F)cccc3F)nc3cc[nH]c(=O)c23)nc1 [I-53, ethyl 2-[6-[[2-(2,6-difluoro-phenyl)-5-oxo-6H-1,6-naphthyridin-4-yl]amino]-3-pyridyl]-2-methyl-propanoate] | ≤ 100 nM
22 | CC1(Cc2cc(Nc3ccc(N4CCC(O)CC4)cn3)c3c(=O)[nH]ccc3n2)COC1 [I-54, 4-[[5-(4-hydroxy-1-piperidyl)-2-pyridyl]amino]-2-[(3-methyl-oxetan-3-yl)methyl]-6H-1,6-naphthyridin-5-one] | 100 to 1000 nM
23 | COc1cc(F)c(-c2cc(Nc3ccc(N4CCC(O)CC4)cn3)c3c(=O)[nH]ccc3n2)cc1C [I-55, 2-(2-fluoro-4-methoxy-5-methyl-phenyl)-4-[[5-(4-hydroxy-1-piperidyl)-2-pyridyl]amino]-6H-1,6-naphthyridin-5-one] | 100 to 1000 nM
24 | O=c1[nH]cc(-c2ccccc2)c2nc(-c3c(F)cccc3F)cc(Nc3ccc(N4CCC(O)CC4)cn3)c12 [I-56] | > 1000 nM
25 | CC(C)c1cc(Nc2ccc(N3CCN(C)CC3)cn2)c2c(=O)[nH]ccc2n1 [I-57, 2-isopropyl-4-[[5-(4-methyl-piperazin-1-yl)-2-pyridyl]amino]-6H-1,6-naphthyridin-5-one] | ≤ 100 nM
26 | O=C(Nc1ccc(-c2cc(Nc3ccc(N4CCC(O)CC4)cn3)c3c(=O)[nH]ccc3n2)c(F)c1)C1CC1 [I-58, N-[3-fluoro-4-[4-[[5-(4-hydroxy-1-piperidyl)-2-pyridyl]amino]-5-oxo-6H-1,6-naphthyridin-2-yl]phenyl] cyclopropane-carboxamide] | ≤ 100 nM
27 | CC(C)c1cc(Nc2ccc(N3CCC(O)CC3)cn2)c2c(=O)[nH]cnc2n1 [I-59, 5-[[5-(4-hydroxy-1-piperidyl)-2-pyridyl]amino]-7-isopropyl-3H-pyrido[2,3-d]pyrimidin-4-one] | 100 to 1000 nM
